{"source": "PubChem BioAssay AID1204", "about": "(EPA DSSTox, 2008)", "tested_on": "estrogen receptor (rat uterine cytosol)", "assay": "DSSTox (NCTRER) National Center for Toxicological Research Estrogen Receptor Binding Database;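 as to relative binding affinity: ratio of estradiol IC50 over compound IC50 times 100 so estradiol equals 100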", "settings": "rat uterine cytosol ER competitive binding, RBA; for relative binding affinity: active compounds read high", "text": "Researchers within FDA's National Center for Toxicological Research (NCTR) generated a database of experimental estrogen receptor binding results for the express purpose of developing improved QSAR models to predict ER binding affinities.The NCTR ER database is a structurally diverse set of natural, synthetic, and environmental estrogens covering most known estrogenic classes and spanning a wide range of biological activity. It represents the largest published ER binding database of same-assay results generated in a single laboratory. […] Information on the percent purity and purchasing source for all chemicals are not included in the DSSTox SDF, but can be obtained from the original NCTR ER Source database and Main Citations listed below. The main citation (Fang et al., 2001) surveys the NCTR ER database from a chemical class based, structure-activity relationship (SAR) perspective. Qualitative SAR characteristics of the NCTR ER database are discussed and a set of general hierarchical rules for identifying potential estrogens are presented. The DSSTox NCTRER SDF augments the original NCTR ER database with chemical class and SAR information abstracted from Fang et al. (2001). The DSSTox SDF file supplements the measured ER relative binding affinity for each chemical (ER_RBA) with chemical class assignment to one of 6 major estrogenic classes further divided into 20 subclasses (ChemClass_ERB), along with a qualitative activity measure, ActivityCategory_ER_RBA. A brief narrative SAR rationale pertaining to ER RBA patterns observed by Fang et al. (2001) for each of the 20 subclasses within the database are provided in the field, ActivityCategory_Rationale_ChemClass_ERB. The original NCTR ER database, from which the expanded DSSTox NCTRER was formed, is contained within a larger Endocrine Disruptor Knowledge Base (EDKB) accessible from the FDA Source Website. That website provides online access to a relational database comprised of in vitro and in vivo experimental data for about 2000 natural and synthetic compounds, much of this extracted from the literature and representing testing in many laboratories. Data are included for biological assays that measure estrogenic and androgenic activity. Estrogenic endpoints include in vitro assays for estrogen receptor competitive binding affinity, cell proliferation, and reporter-gene assays, and in vivo assays for uterotrophic activity (i.e., uterine weight gain and vaginal cornification). The database also contains a bibliography of over 1200 citations, many of which include abstracts.\nEstrogen receptor relative binding affinity is determined using a competitive receptor binding assay as described in NCTRER Ref (Blair et al., 2000). Briefly, a chemical competes with radiolabeled E2 (i.e., estradiol) for binding to the ER in rat uterine cytosol and the concentration of chemical that causes 50% inhibition of E2 binding (i.e., IC50) is measured. The ER_RBA is calculated by dividing the IC50 of E2 (9X10-10M) by the IC50 of the competitor and multiplying by 100 (E2 RBA = 100). The validated assay tested 1nM E2 with concentrations of competitor ranging from 1nM to 1mM. The larger the ER_RBA values, the greater the binding affinity; ER_RBA > 100 means compound has greater binding affinity than natural ER ligand, E2. […] Activity Score is mapping of LOG_ER_RBA values (ER-RBA>1E-5), spanning activity range [MIN, MAX] onto Integer 20-100 Activity range, where 100 is highest potency and 20 is lowest active potency. If Activity Outcome is \"active\": Activity Score = 80 * INTEGER[(LOG_ER_RBA - MIN)/(MAX […] MIN)]. If Activity Outcome is \"inconclusive\" (i.e., slight binder): Activity Score = 5.", "key": {"[1]": {"settings": "ChemClass_ERB: Diphenylmethanes Benzophenones"}, "[2]": {"settings": "ChemClass_ERB: Phytoestrogens Isoflavones"}, "[3]": {"settings": "ChemClass_ERB: DES Hexestrol derivatives"}, "[4]": {"settings": "ChemClass_ERB: Steroids Without aromatic A ring"}, "[5]": {"settings": "ChemClass_ERB: Phytoestrogens Flavanones"}, "[6]": {"settings": "ChemClass_ERB: Diphenylmethanes DDTs"}, "[7]": {"settings": "ChemClass_ERB: Phytoestrogens Flavones"}, "[8]": {"settings": "ChemClass_ERB: Steroids With aromatic A ring"}}, "note": "Results filed as inconclusive are left out. Calls of active or inactive are those of the source.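 The calls were made as follows: active = relative estrogen receptor binding affinity above 1E-5, where estradiol scores 100; inconclusive = weak binder, under half inhibition at top dose, or affinity below 1E-5; inactive = no binding seen, affinity zero.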", "data": [{"compound": "O=S(=O)(c1ccc(O)cc1)c1ccc(O)cc1", "values": [{"measurement": "relative binding affinity", "setting": "[1]", "value": 0.00085, "unit": "%"}]}, {"compound": "COc1cc(O)c2c(=O)c(-c3ccc(O)cc3)coc2c1", "values": [{"measurement": "relative binding affinity", "setting": "[2]", "value": 0.00181, "unit": "%"}]}, {"compound": "C=CC1(C)OC(=O)N(c2cc(Cl)cc(Cl)c2)C1=O", "note": "(stereo unspecified)", "values": [{"measurement": "outcome", "setting": "ChemClass_ERB: Misc", "value": "inactive"}]}, {"compound": "COc1ccc(C(=O)c2ccccc2)c(O)c1", "values": [{"measurement": "outcome", "setting": "[1]", "value": "inactive"}]}, {"compound": "Oc1ccc(CCc2ccc(O)cc2)cc1", "values": [{"measurement": "relative binding affinity", "setting": "[3]", "value": 0.0363, "unit": "%"}]}, {"compound": "CCC(C)c1ccccc1", "note": "(stereo unspecified)", "values": [{"measurement": "outcome", "setting": "ChemClass_ERB: Misc", "value": "inactive"}]}, {"compound": "CC[C@H](CC[C@@H](C)[C@H]1CC[C@H]2[C@@H]3CC=C4C[C@@H](O)CC[C@]4(C)[C@H]3CC[C@]12C)C(C)C", "values": [{"measurement": "outcome", "setting": "[4]", "value": "inactive"}]}, {"compound": "C[C@@H]1O[C@@H](O[C@H]2[C@H](Oc3cc(O)c4c(c3)O[C@H](c3ccc(O)cc3)CC4=O)O[C@H](CO)[C@@H](O)[C@@H]2O)[C@H](O)[C@H](O)[C@H]1O", "values": [{"measurement": "outcome", "setting": "[5]", "value": "inactive"}]}, {"compound": "Oc1ccc(C(c2ccc(O)cc2)C(Cl)(Cl)Cl)cc1", "values": [{"measurement": "relative binding affinity", "setting": "[6]", "value": 0.251, "unit": "%"}]}, {"compound": "O=Cc1ccco1", "values": [{"measurement": "outcome", "setting": "ChemClass_ERB: Misc", "value": "inactive"}]}, {"compound": "OCc1ccccc1", "values": [{"measurement": "outcome", "setting": "ChemClass_ERB: Misc", "value": "inactive"}]}, {"compound": "O=S1OCC2C(CO1)C1(Cl)C(Cl)=C(Cl)C2(Cl)C1(Cl)Cl", "note": "(stereo unspecified)", "values": [{"measurement": "outcome", "setting": "ChemClass_ERB: Misc", "value": "inactive"}]}, {"compound": "ClC1=C(Cl)[C@]2(Cl)[C@@H]3[C@H]4C=CC(C4)[C@@H]3C1(Cl)C2(Cl)Cl", "values": [{"measurement": "outcome", "setting": "ChemClass_ERB: Misc", "value": "inactive"}]}, {"compound": "O=c1cc(-c2ccccc2)oc2ccccc12", "values": [{"measurement": "outcome", "setting": "[7]", "value": "inactive"}]}, {"compound": "C=CC(C)(O)CC/C=C(\\C)CCC=C(C)C", "note": "(stereo unspecified)", "values": [{"measurement": "outcome", "setting": "ChemClass_ERB: Misc", "value": "inactive"}]}, {"compound": "O=C1CC(c2ccc(O)cc2)Oc2ccccc21", "note": "(stereo unspecified)", "values": [{"measurement": "relative binding affinity", "setting": "[5]", "value": 0.00223, "unit": "%"}]}, {"compound": "C[Si](C)(Cc1ccccc1)O[Si](C)(C)Cc1ccccc1", "values": [{"measurement": "outcome", "setting": "ChemClass_ERB: Misc", "value": "inactive"}]}, {"compound": "C/C(=C(/C)c1ccc(O)cc1)c1ccc(O)cc1", "values": [{"measurement": "relative binding affinity", "setting": "ChemClass_ERB: DES Derivatives", "value": 14.4, "unit": "%"}]}, {"compound": "c1ccc2c(c1)ccc1c3ccccc3ccc21", "values": [{"measurement": "outcome", "setting": "ChemClass_ERB: Misc", "value": "inactive"}]}, {"compound": "O=C(c1ccccc1O)c1ccccc1O", "values": [{"measurement": "outcome", "setting": "[1]", "value": "inactive"}]}, {"compound": "C[C@@]12CCC[C@H]1[C@@H]1CCc3cc(O)ccc3[C@H]1CC2", "values": [{"measurement": "relative binding affinity", "setting": "[8]", "value": 13.8, "unit": "%"}]}, {"compound": "CC[C@H](c1ccc(O)cc1)[C@@H](CC)c1ccc(O)cc1", "values": [{"measurement": "relative binding affinity", "setting": "[3]", "value": 301, "unit": "%"}]}, {"compound": "COc1ccc(-c2coc3cc(O)cc(O)c3c2=O)cc1", "values": [{"measurement": "relative binding affinity", "setting": "[2]", "value": 0.0043, "unit": "%"}]}, {"compound": "COc1ccc(C(=C(Cl)Cl)c2ccc(O)cc2)cc1", "values": [{"measurement": "relative binding affinity", "setting": "[6]", "value": 0.234, "unit": "%"}]}, {"compound": "C[C@]12CC[C@@H]3c4ccccc4CC[C@H]3[C@@H]1CC[C@@H]2O", "values": [{"measurement": "relative binding affinity", "setting": "[8]", "value": 0.501, "unit": "%"}]}, {"compound": "C[C@]12CCC(=O)C=C1CC[C@@H]1[C@@H]2[C@@H](O)C[C@]2(C=O)[C@@H](C(=O)CO)CC[C@@H]12", "values": [{"measurement": "outcome", "setting": "[4]", "value": "inactive"}]}, {"compound": "C#C[C@]1(O)CC[C@H]2[C@@H]3CCc4cc(OC)ccc4[C@H]3CC[C@@]21C", "values": [{"measurement": "relative binding affinity", "setting": "[8]", "value": 2.24, "unit": "%"}]}, {"compound": "O=C(O)/C=C/c1ccccc1", "values": [{"measurement": "outcome", "setting": "ChemClass_ERB: Misc", "value": "inactive"}]}, {"compound": "ClC1(Cl)C2(Cl)C3(Cl)C4(Cl)C(Cl)(Cl)C5(Cl)C3(Cl)C1(Cl)C5(Cl)C24Cl", "note": "(stereo unspecified)", "values": [{"measurement": "outcome", "setting": "ChemClass_ERB: Misc", "value": "inactive"}]}, {"compound": "CNC(=O)Oc1cccc2ccccc12", "values": [{"measurement": "outcome", "setting": "ChemClass_ERB: Misc", "value": "inactive"}]}, {"compound": "C/C=C/c1ccc(O)c(OC)c1", "values": [{"measurement": "outcome", "setting": "ChemClass_ERB: Phenols Alkyloxy", "value": "inactive"}]}, {"compound": "C[C@]12CC[C@H]3[C@@H](CCC4=CC(=O)CC[C@@]43C)[C@@H]1CC[C@H]2O", "values": [{"measurement": "outcome", "setting": "[4]", "value": "inactive"}]}, {"compound": "O=C1CC(c2ccccc2)Oc2ccc(O)cc21", "note": "(stereo unspecified)", "values": [{"measurement": "relative binding affinity", "setting": "[5]", "value": 0.00089, "unit": "%"}]}, {"compound": "ClC1=C(Cl)C2(Cl)C3C(Cl)C=CC3C1(Cl)C2(Cl)Cl", "note": "(stereo unspecified)", "values": [{"measurement": "outcome", "setting": "ChemClass_ERB: Misc", "value": "inactive"}]}, {"compound": "O=c1c(O)c(-c2cc(O)c(O)c(O)c2)oc2cc(O)cc(O)c12", "values": [{"measurement": "relative binding affinity", "setting": "[7]", "value": 0.00177, "unit": "%"}]}, {"compound": "ClC1=C(Cl)[C@@]2(Cl)[C@@H]3[C@@H](Cl)[C@H](Cl)C[C@@H]3C1(Cl)C2(Cl)Cl", "values": [{"measurement": "outcome", "setting": "ChemClass_ERB: Misc", "value": "inactive"}]}]}
